Where a SMILES comes first, the peptide text is derived from it. Bridges are numbered along the chain shown (N, C = ends). [ ]: non-standard residue; d: D form. The star is where a group is joined. ξ: configuration not given here. Phe(4-COOH) = N[C@@H](Cc1ccc(C(=O)O)cc1)C(=O)O; Bip = N[C@@H](Cc1ccc(-c2ccccc2)cc1)C(=O)O; Phe(3-CN) = N#Cc1cccc(C[C@H](N)C(=O)O)c1; Phe(3-F) = N[C@@H](Cc1cccc(F)c1)C(=O)O; Phe(3-Me) = Cc1cccc(C[C@H](N)C(=O)O)c1; NH(CH2)12COOH = O=C(O)CCCCCCCCCCCCN*; Val(3-OH) = CC(C)(O)[C@H](N)C(=O)O; aIle = CC[C@@H](C)[C@H](N)C(=O)O; 4Pal = N[C@@H](Cc1ccncc1)C(=O)O; 2Thi = N[C@@H](Cc1cccs1)C(=O)O; 3Thi = N[C@@H](Cc1ccsc1)C(=O)O; Cha = N[C@@H](CC1CCCCC1)C(=O)O; Cit = NC(=O)NCCC[C@H](N)C(=O)O; Ile(3ξ) = CCC(C)[C@H](N)C(=O)O; Thr(3ξ) = CC(O)[C@H](N)C(=O)O; NMeS = CN[C@@H](CO)C(=O)O; Carboxymethyl = O=C(O)C*; NMeA = CN[C@@H](C)C(=O)O; Orn = NCCC[C@H](N)C(=O)O; Aun = NCCCCCCCCCCC(=O)O; Dab = NCC[C@H](N)C(=O)O; Dap = NC[C@H](N)C(=O)O; AEEA = NCCOCCOCC(=O)O; Ac3c = NC1(C(=O)O)CC1
molecular target: T1, PD-1/PD-L1 interaction (PE-labeled human PD-L1-Ig binding to Jurkat cell line over-expressing human PD-1) (Homo sapiens, UniProt Q15116); test: Jurkat-PD-1 Cell Binding High-Content Screening Assay (CBA); conditions: Jurkat-hPD-1 cells, PE-labeled PD-L1-Ig 20 nM final; read-out: Jurkat HPD1 PDL1 IC50
T1 construct: expressed in transfected cells; host or cells: Jurkat
T1 sequence (Q15116 25-288): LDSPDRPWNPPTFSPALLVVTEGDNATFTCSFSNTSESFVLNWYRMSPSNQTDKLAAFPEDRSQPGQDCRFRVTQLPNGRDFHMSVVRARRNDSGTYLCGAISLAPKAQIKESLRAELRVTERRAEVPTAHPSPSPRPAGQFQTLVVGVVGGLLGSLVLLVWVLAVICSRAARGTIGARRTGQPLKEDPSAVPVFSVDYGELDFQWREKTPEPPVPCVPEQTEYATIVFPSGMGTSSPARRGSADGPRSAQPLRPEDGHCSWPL
Procedure, shortened: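 Jurkat cells overexpressing human PD-1 (8×10^3/well, DMEM + 10% FCS) preincubated with compound 2 h at 37 °C, then PE-labelled human PD-L1-Ig (20 nM final) for 1 h. Cells fixed in paraformaldehyde with Hoechst 33342; bound PD-L1 quantified by high-content imaging.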

SMILES	IC50 [µM]
CC(C)C[C@@H]1NC(=O)[C@H](Cc2c[nH]c3ccccc23)NC(=O)[C@H](CC(=O)O)NC(=O)[C@H](Cc2ccc(C(=O)O)cc2)NC(=O)[C@H](Cc2ccc(OCC(=O)O)cc2)NC(=O)CSC[C@@H](C(=O)NCC(=O)N[C@@H](CN)C(=O)NCCCCCCCCCCC(=O)O)NC(=O)[C@H](CO)NC(=O)[C@H](C(C)C)NC(=O)[C@H](CC2CCCCC2)NC(=O)[C@H](CCN)NC(=O)[C@@H](CC(C)C)NC(=O)[C@H](C)N(C)C(=O)[C@H](C(C)C)NC(=O)[C@H](Cc2ccc(-c3ccccc3)cc2)NC1=O [Example 1036] ({CH2CO}-Y(Carboxymethyl)[Phe(4-COOH)]DWL[Bip]V[NMeA][dL][Dab][Cha]VSCG[Dap][Aun]-OH; thioether N-14)	0.0115
CC(C)C[C@H]1NC(=O)[C@H](C)N(C)C(=O)[C@H](Cc2ccc(OCC(=O)O)cc2)NC(=O)[C@H](Cc2ccc(-c3ccccc3)cc2)NC(=O)[C@H](Cc2ccc(OCC(=O)O)cc2)NC(=O)[C@H](Cc2cccc(C#N)c2)NC(=O)[C@H](CC(=O)O)NC(=O)[C@H](Cc2ccc(OCC(=O)O)cc2)NC(=O)[C@H]([C@@H](C)O)NC(=O)CSC[C@@H](C(=O)N[C@@H](CCN)C(=O)NCCOCCOCC(=O)NCCCCCCCCCCC(=O)O)NC(=O)[C@H](CCC(=O)O)NC(=O)[C@H](C(C)C)NC(=O)[C@H](CC2CCCCC2)NC(=O)[C@H](CCN)NC1=O [Example 1230] ({CH2CO}-TY(Carboxymethyl)D[Phe(3-CN)]Y(Carboxymethyl)[Bip]Y(Carboxymethyl)[NMeA][dL][Dab][Cha]VEC[Dab][AEEA][Aun]-OH; thioether N-14)	0.128
CC(C)C[C@@H]1NC(=O)[C@H](Cc2c[nH]c3ccccc23)NC(=O)[C@H](CC(=O)O)NC(=O)[C@H](Cc2ccc(C(=O)O)cc2)NC(=O)[C@H](Cc2ccc(OCC(=O)O)cc2)NC(=O)CSC[C@@H](C(=O)N[C@@H](CCCN)C(=O)NCCOCCOCC(=O)NCCCCCCCCCCC(=O)O)NC(=O)[C@@H](CO)NC(=O)[C@H](C(C)C)NC(=O)[C@H](CC2CCCCC2)NC(=O)[C@H](CCN)NC(=O)[C@@H](CC(C)C)NC(=O)[C@H](C)N(C)C(=O)[C@H](C(C)C)NC(=O)[C@H](Cc2ccc(-c3ccccc3)cc2)NC1=O [Example 1242] ({CH2CO}-Y(Carboxymethyl)[Phe(4-COOH)]DWL[Bip]V[NMeA][dL][Dab][Cha]V[dS]C[Orn][AEEA][Aun]-OH; thioether N-14)	0.0198
Cc1cccc(C[C@@H]2NC(=O)[C@H](CC(=O)O)NC(=O)[C@H](Cc3ccc(OCC(=O)O)cc3)NC(=O)[C@H](CCCNC(=N)N)NC(=O)CSC[C@@H](C(=O)N[C@@H](CCN)C(=O)NCCCCCCCCCCC(=O)O)NC(=O)[C@H](C(C)O)NC(=O)[C@H](C(C)C)NC(=O)[C@H](CC3CCCCC3)NC(=O)[C@H](CCN)NC(=O)[C@@H](CC(C)C)NC(=O)[C@H](C)N(C)C(=O)[C@H](CCCNC(N)=O)NC(=O)[C@H](Cc3ccc(-c4ccccc4)cc3)NC(=O)[C@H](C(C)C)NC2=O)c1 (stereo partly drawn) [Example 2211] ({CH2CO}-RY(Carboxymethyl)D[Phe(3-Me)]V[Bip][Cit][NMeA][dL][Dab][Cha]V[Thr(3ξ)]C[Dab][Aun]-OH; thioether N-14)	0.0085
Cc1cccc(C[C@@H]2NC(=O)[C@H](CC(=O)O)NC(=O)[C@H](Cc3ccc(OCC(=O)O)cc3)NC(=O)[C@H](Cc3ccc(OCC(=O)O)cc3)NC(=O)CSC[C@@H](C(=O)NC3(C(=O)NCCOCCOCC(=O)NCCCCCCCCCCC(=O)O)CC3)NC(=O)[C@H](CCCN)NC(=O)[C@H](C(C)C)NC(=O)[C@H](CC3CCCCC3)NC(=O)[C@H](CCN)NC(=O)[C@@H](CC(C)C)NC(=O)[C@H](C)N(C)C(=O)[C@H](Cc3ccc(O)cc3)NC(=O)[C@H](Cc3ccc(-c4ccccc4)cc3)NC(=O)[C@H](CC(C)C)NC2=O)c1 [Example 1251] ({CH2CO}-Y(Carboxymethyl)Y(Carboxymethyl)D[Phe(3-Me)]L[Bip]Y[NMeA][dL][Dab][Cha]V[Orn]C[Ac3c][AEEA][Aun]-OH; thioether N-14)	0.0118

Now from value to compound:

IC50 [µM]	SMILES
0.0342	Cc1cccc(C[C@@H]2NC(=O)[C@H](CC(=O)O)NC(=O)[C@H](Cc3ccc(C(=O)O)cc3)NC(=O)[C@H](Cc3ccc(OCC(=O)O)cc3)NC(=O)CSC[C@@H](C(=O)NCCOCCOCC(=O)NCCCCCCCCCCC(=O)O)NC(=O)[C@H](CCCNC(=N)N)NC(=O)[C@H](C(C)C)NC(=O)[C@H](CC3CCCCC3)NC(=O)[C@H](CCN)NC(=O)[C@@H](CC(C)C)NC(=O)[C@H](CO)N(C)C(=O)[C@H](C(C)C)NC(=O)[C@H](Cc3ccc(-c4ccccc4)cc3)NC(=O)[C@H](CC(C)C)NC2=O)c1 [Example 2278] ({CH2CO}-Y(Carboxymethyl)[Phe(4-COOH)]D[Phe(3-Me)]L[Bip]V[NMeS][dL][Dab][Cha]VRC[AEEA][Aun]-OH; thioether N-14)
0.009	Cc1cccc(C[C@@H]2NC(=O)[C@H](CC(=O)O)NC(=O)[C@H](Cc3ccc(OCC(=O)O)cc3)NC(=O)[C@H](Cc3ccncc3)NC(=O)CSC[C@@H](C(=O)N[C@@H](CCN)C(=O)NCCCCCCCCCCC(=O)O)NC(=O)[C@H](CO)NC(=O)[C@H](C(C)(C)O)NC(=O)[C@H](CC3CCCCC3)NC(=O)[C@H](CCN)NC(=O)[C@@H](CC(C)C)NC(=O)[C@H](C)N(C)C(=O)[C@H](Cc3ccc(OCC(=O)O)cc3)NC(=O)[C@H](Cc3ccc(-c4ccccc4)cc3)NC(=O)[C@H](Cc3ccc(OCC(=O)O)cc3)NC2=O)c1 [Example 1287] ({CH2CO}-[4Pal]Y(Carboxymethyl)D[Phe(3-Me)]Y(Carboxymethyl)[Bip]Y(Carboxymethyl)[NMeA][dL][Dab][Cha][Val(3-OH)]SC[Dab][Aun]-OH; thioether N-14)
0.0474	CC[C@@H](C)[C@@H]1NC(=O)[C@H](Cc2ccc(-c3ccccc3)cc2)NC(=O)[C@H](C(C)C)NC(=O)[C@H](Cc2c[nH]c3ccccc23)NC(=O)[C@H](CC(=O)O)NC(=O)[C@H](Cc2ccc(O)cc2)NC(=O)[C@H](Cc2ccncc2)NC(=O)CSC[C@@H](C(=O)N[C@H](CCCCN)C(=O)NCCOCCOCC(=O)NCCCCCCCCCCC(=O)O)NC(=O)[C@H](CO)NC(=O)[C@H](C(C)C)NC(=O)[C@H](CC2CCCCC2)NC(=O)[C@H](CCN)NC(=O)[C@@H](CC(C)C)NC(=O)[C@H](C)N(C)C1=O [Example 2023] ({CH2CO}-[4Pal]YDWV[Bip][aIle][NMeA][dL][Dab][Cha]VSC[dK][AEEA][Aun]-OH; thioether N-14)
0.0116	Cc1cccc(C[C@@H]2NC(=O)[C@H](CC(=O)O)NC(=O)[C@H](Cc3ccc(C(=O)O)cc3)NC(=O)[C@H](CCN)NC(=O)CSC[C@@H](C(=O)N[C@@H](CCN)C(=O)NCCCCCCCCCCC(=O)O)NC(=O)[C@H](CO)NC(=O)[C@H](C(C)(C)O)NC(=O)[C@H](CC3CCCCC3)NC(=O)[C@H](CCN)NC(=O)[C@@H](CC(C)C)NC(=O)[C@H](C)N(C)C(=O)[C@H](Cc3ccc(OCC(=O)O)cc3)NC(=O)[C@H](Cc3ccc(-c4ccccc4)cc3)NC(=O)[C@H](Cc3cccs3)NC2=O)c1 [Example 1294] ({CH2CO}-[Dab][Phe(4-COOH)]D[Phe(3-Me)][2Thi][Bip]Y(Carboxymethyl)[NMeA][dL][Dab][Cha][Val(3-OH)]SC[Dab][Aun]-OH; thioether N-14)
0.0277	Cc1cccc(C[C@@H]2NC(=O)[C@H](CC(=O)O)NC(=O)[C@H](Cc3ccc(OCC(=O)O)cc3)NC(=O)[C@H]([C@@H](C)O)NC(=O)CSC[C@@H](C(=O)N[C@@H](CCN)C(=O)NCCOCCOCC(=O)NCCCCCCCCCCC(=O)O)NC(=O)[C@H](CCC(=O)O)NC(=O)[C@H](C(C)(C)O)NC(=O)[C@H](CC3CCCCC3)NC(=O)[C@H](CCN)NC(=O)[C@@H](CC(C)C)NC(=O)[C@H](C)N(C)C(=O)[C@H](Cc3ccc(OCC(=O)O)cc3)NC(=O)[C@H](Cc3ccc(-c4ccccc4)cc3)NC(=O)[C@H](Cc3cccc(F)c3)NC2=O)c1 [Example 1424] ({CH2CO}-TY(Carboxymethyl)D[Phe(3-Me)][Phe(3-F)][Bip]Y(Carboxymethyl)[NMeA][dL][Dab][Cha][Val(3-OH)]EC[Dab][AEEA][Aun]-OH; thioether N-14)

same assay, conditions: PE-labeled PD-L1-Ig 20 nM final, Jurkat-hPD-1 cells; read-out: Jurkat HPD1 PDL1 IC50

IC50 [µM]	SMILES
0.0122	CC(=O)NCCCC[C@@H]1NC(=O)[C@H](C(C)C)NC(=O)[C@H](CC2CCCCC2)NC(=O)[C@H](CCN)NC(=O)[C@@H](CC(C)C)NC(=O)[C@H](C)N(C)C(=O)[C@H](CCC(N)=O)NC(=O)[C@H](Cc2ccc(-c3ccccc3)cc2)NC(=O)[C@H](CC(C)C)NC(=O)[C@H](Cc2c[nH]c3ccccc23)NC(=O)[C@H](CC(=O)O)NC(=O)[C@H](Cc2ccc(OCC(=O)O)cc2)NC(=O)[C@H](Cc2ccsc2)NC(=O)CSC[C@@H](C(=O)N[C@@H](CCN)C(=O)NCCOCCOCC(=O)NCCCCCCCCCCC(=O)O)NC1=O [Example 2503] ({CH2CO}-[3Thi]Y(Carboxymethyl)DWL[Bip]Q[NMeA][dL][Dab][Cha]VK(Ac)C[Dab][AEEA][Aun]-OH; thioether N-14)
0.0249	CCC(C)[C@@H]1NC(=O)[C@H](Cc2ccc(-c3ccccc3)cc2)NC(=O)[C@H](C(C)C)NC(=O)[C@H](Cc2c[nH]c3ccccc23)NC(=O)[C@H](CC(=O)O)NC(=O)[C@H](Cc2ccc(C(=O)O)cc2)NC(=O)[C@H](Cc2cnc[nH]2)NC(=O)CSC[C@@H](C(=O)N[C@@H](CCN)C(=O)N[C@@H](CCC(=O)NCCCCCCCCCCCCC(=O)O)C(=O)O)NC(=O)[C@H](CCC(=O)O)NC(=O)[C@H](C(C)(C)O)NC(=O)[C@H](CC2CCCCC2)NC(=O)[C@H](CCN)NC(=O)[C@@H](CC(C)C)NC(=O)[C@H](C)N(C)C1=O (stereo partly drawn) [Example 2632] ({CH2CO}-H[Phe(4-COOH)]DWV[Bip][Ile(3ξ)][NMeA][dL][Dab][Cha][Val(3-OH)]EC[Dab]E(NH(CH2)12COOH)-OH; thioether N-14)
